The target in assay [1] is MLK1 (Homo sapiens, UniProt P80192). The experiment in a line: IC50 on recombinant MLK1. The note with it: Fig 5B / Appendix Fig S1B, recombinant kinase, unit inferred. The format is biochemical. The protocol: (§1) The result for each kinase is presented as a mean kinase activity of the reaction taken in triplicate relative to a control reaction where the inhibitors were omitted. […] SGK3 was immunoprecipitated from cell lysates and subjected to in vitro kinase assay by measuring phosphorylation of the Crosstide substrate peptide in the presence of 0.1 mM [γ‐^32P]ATP in a 30 min 30°C reaction (upper panel). Kinase reactions are presented as means ± SD for triplicate reaction.
Chain of MLK1 (P80192 whole entry, species assumed): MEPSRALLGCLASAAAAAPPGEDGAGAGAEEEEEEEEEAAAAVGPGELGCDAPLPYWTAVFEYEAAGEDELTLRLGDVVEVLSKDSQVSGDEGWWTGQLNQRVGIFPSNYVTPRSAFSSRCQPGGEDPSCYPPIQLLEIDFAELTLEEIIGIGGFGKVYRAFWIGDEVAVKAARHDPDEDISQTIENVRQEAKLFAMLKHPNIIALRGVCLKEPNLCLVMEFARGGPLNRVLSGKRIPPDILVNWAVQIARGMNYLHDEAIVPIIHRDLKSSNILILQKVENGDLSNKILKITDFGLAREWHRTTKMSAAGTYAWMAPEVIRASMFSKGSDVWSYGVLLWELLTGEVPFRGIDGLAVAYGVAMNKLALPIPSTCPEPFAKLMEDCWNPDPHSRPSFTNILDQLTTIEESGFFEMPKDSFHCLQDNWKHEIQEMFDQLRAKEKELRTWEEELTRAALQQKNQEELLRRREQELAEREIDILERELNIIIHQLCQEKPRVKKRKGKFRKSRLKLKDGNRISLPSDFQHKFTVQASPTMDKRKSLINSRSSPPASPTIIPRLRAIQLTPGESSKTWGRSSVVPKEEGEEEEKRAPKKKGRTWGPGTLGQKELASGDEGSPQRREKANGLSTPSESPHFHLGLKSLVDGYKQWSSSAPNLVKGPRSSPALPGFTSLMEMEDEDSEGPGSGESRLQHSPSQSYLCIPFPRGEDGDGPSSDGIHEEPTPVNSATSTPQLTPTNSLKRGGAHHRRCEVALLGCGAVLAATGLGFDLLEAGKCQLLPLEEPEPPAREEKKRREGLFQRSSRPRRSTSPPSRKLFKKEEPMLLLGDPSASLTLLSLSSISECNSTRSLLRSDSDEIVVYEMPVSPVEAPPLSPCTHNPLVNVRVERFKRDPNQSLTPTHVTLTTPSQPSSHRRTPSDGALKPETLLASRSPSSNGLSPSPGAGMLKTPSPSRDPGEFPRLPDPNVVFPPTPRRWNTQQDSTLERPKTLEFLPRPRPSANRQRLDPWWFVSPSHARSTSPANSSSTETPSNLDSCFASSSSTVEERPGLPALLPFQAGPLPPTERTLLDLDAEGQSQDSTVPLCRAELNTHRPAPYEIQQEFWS
(§2) Appendix Figure S1. […] (A) Chemical struc tures of
(§3) Sano/f_i-14g, -14i and -14n compounds. (B) IC50 values of inhibitors on indicated recombinant k inases. […]

Assay [2] relates to BT-474c cells. The experiment in a line: Immunoblot of mTORC1 pathway markers in BT-474c cells. The format is cell-based, human. The note with it: 5 days 1 μM MK-2206, then 3 μM 14h 1 h. The protocol:
SGK3 (upper panel) and S6K1 (middle panel) were immunoprecipitated and subjected to in vitro kinase assay by measuring phosphorylation of the Crosstide substrate peptide in the presence of 0.1 mM [γ‐^32P]ATP in a 30 min 30°C reaction. Kinase reactions are presented as means ± SD for triplicate reaction. Immunoprecipitates (IP) were also analysed by immunoblot with the indicated antibodies. The cell lysates were subjected to immunoblot analysis using the indicated antibodies (bottom panel). Source data are available online for this figure.
HEK293 cells were purchased from the American Tissue Culture Collection (ATCC). Cells were cultured in RPMI or DMEM media supplemented with 10% (v/v) foetal bovine serum, 2 mM L‐glutamine, 100 U/ml penicillin and 0.1 mg/ml streptomycin. Inhibitor treatments were carried out as described in figure legends. During 5 days inhibitor treatments, the media was changed after 72‐h intervals. The cells were lysed in buffer containing 50 mM Tris–HCl (pH 7.5), 150 mM NaCl, 1 mM EDTA, 1 mM EGTA, 1 mM sodium orthovanadate, 10 mM sodium glycerophosphate, 10 mM sodium pyrophosphate, 0.27 M sucrose, 0.1% (v/v) 2‐mercaptoethanol, 1 mM benzamidine and 0.1 mM PMSF. Lysates were clarified by centrifugation at 16,000 g for 10 min at 4°C. Protein concentration was calculated using Bradford assay (Thermo Scientific). […]
A general note: A western blot detects proteins with antibodies after separation by electrophoresis.

The target in assay [3] is S6K1 (Homo sapiens, UniProt P23443). The experiment in a line: IC50 on recombinant S6K1 (p70S6K). In kind it is biochemical. The note with it: Fig 5B / Appendix Fig S1B, recombinant kinase, unit inferred. The protocol:
as §1, §2, §3

The test system of assay [4] is NDRG1 phosphorylation in ZR-75-1 cells. Kind of assay: Immunoblot of NDRG1 (Thr346) phosphorylation in breast cancer cells. The format is cell-based, human. The note with it: 1 μM, 1 h; ZR-75-1, CAMA-1 (and T47D for PI3K inhibitors). The protocol: Cell lysates were subjected to immunoblot analysis with the indicated antibodies. • ZR‐75‐1 cells cultured in serum in the absence of Akt inhibitor were treated for 1 h with the indicated concentrations of VPS34‐IN1. […] One hour prior to lysis, the cells were incubated in the presence or absence of 1 μM VPS34‐IN1. SGK3 was immunoprecipitated from lysates and subjected to in vitro kinase assay by measuring phosphorylation of the Crosstide substrate peptide in the presence of 0.1 mM [γ‐^32P]ATP in a 30 min 30°C reaction (upper panel). Kinase reactions are presented as means ± SD for triplicate reaction. Immunoprecipitates (IP) and lysates were analysed by immunoblot with the indicated antibodies. […] SGK3 was immunoprecipitated from the lysates and subjected to in vitro kinase assay as in (C). Kinase reactions are presented as means ± SD for triplicate reaction. Immunoprecipitates (IP) and lysates (lower panel) were also subjected to immunoblot analysis with the indicated antibodies. • ZR‐75‐1 cells were cultured in the absence or presence of 1 μM MK‐2206 for 5 days. Cells were then treated in the absence or presence of 0.1 μM AZD8055 or 0.1 μM rapamycin for 1 h. SGK3 was immunoprecipitated and subjected to in vitro kinase assay as in (C). Kinase reactions are presented as means ± SD for triplicate reaction. The immunoprecipitates (IP) and lysates were analysed with the indicated antibodies.
One hour prior to lysis, the cells were incubated in the presence of absence of 0.3 μM SAR405. SGK3 was immunoprecipitated from lysates and subjected to in vitro kinase assay by measuring phosphorylation of the Crosstide substrate peptide in the presence of 0.1 mM [γ‐^32P]ATP in a 30 min 30°C reaction (upper panel). Kinase reactions are presented as means ± SD for triplicate reaction. Immunoprecipitates (IP) and lysates were also analysed by immunoblot with the indicated antibodies.
as §1
HEK293 cells were purchased from the American Tissue Culture Collection (ATCC). Cells were cultured in RPMI or DMEM media supplemented with 10% (v/v) foetal bovine serum, 2 mM L‐glutamine, 100 U/ml penicillin and 0.1 mg/ml streptomycin. Inhibitor treatments were carried out as described in figure legends. During 5 days inhibitor treatments, the media was changed after 72‐h intervals. The cells were lysed in buffer containing 50 mM Tris–HCl (pH 7.5), 150 mM NaCl, 1 mM EDTA, 1 mM EGTA, 1 mM sodium orthovanadate, 10 mM sodium glycerophosphate, 10 mM sodium pyrophosphate, 0.27 M sucrose, 0.1% (v/v) 2‐mercaptoethanol, 1 mM benzamidine and 0.1 mM PMSF. Lysates were clarified by centrifugation at 16,000 g for 10 min at 4°C. Protein concentration was calculated using Bradford assay (Thermo Scientific). Immunoblotting and immunoprecipitation were performed using standard procedures. The signal was developed using ECL Western Blotting Detection Kit (Amersham) on Amersham Hyperfilm ECL film (Amersham).

Chain of S6K1 (P23443 whole entry): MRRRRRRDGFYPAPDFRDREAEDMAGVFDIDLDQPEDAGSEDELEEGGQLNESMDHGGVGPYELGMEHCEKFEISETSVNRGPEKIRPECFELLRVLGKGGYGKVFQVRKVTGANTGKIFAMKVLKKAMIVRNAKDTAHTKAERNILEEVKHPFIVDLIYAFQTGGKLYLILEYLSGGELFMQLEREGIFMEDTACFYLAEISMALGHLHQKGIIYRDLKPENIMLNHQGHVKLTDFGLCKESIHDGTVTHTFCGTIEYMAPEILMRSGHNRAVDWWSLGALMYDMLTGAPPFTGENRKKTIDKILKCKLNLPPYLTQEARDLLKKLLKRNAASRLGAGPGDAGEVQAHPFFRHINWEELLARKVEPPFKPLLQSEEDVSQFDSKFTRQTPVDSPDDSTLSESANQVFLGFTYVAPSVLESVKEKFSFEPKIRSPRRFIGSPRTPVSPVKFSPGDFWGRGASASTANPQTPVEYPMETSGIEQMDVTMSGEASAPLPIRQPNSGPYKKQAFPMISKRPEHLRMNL

For `Nc1n[nH]c2nc(-c3ccc(NS(=O)(=O)c4cc(Cl)ccc4Cl)cc3)cnc12` [14h], the values for the IC50 in assay [1] and in assay [3] were 0.215 µM and 0.076 µM, respectively. Further, in assay [2], the “phosphorylation of TSC2, S6K1 and S6 protein” value was “suppression of phosphorylation of TSC2, S6K1 and its downstream target S6 protein”.

In the case of `NC1(c2ccc(-c3nc4ccn5c(=O)[nH]nc5c4cc3-c3ccccc3)cc2)CCC1` [MK-2206], the “phosphorylation of PRAS40 (Thr246) and NDRG1 (Thr346)” value in assay [4] was “inhibited”.

As a reminder, the IC50 is the concentration at which inhibition is half-maximal.

These data come from article PMC5007552, “The hVps34‐SGK3 pathway alleviates sustained PI3K/Akt inhibition by stimulating mTORC1 and tumour growth” (The EMBO Journal, 2016).
